Measured values: patent US8158779B2, “Antiviral nucleosides” (Medivir AB, priority 2006, dated 2012)

What was measured:
[1] = tested on: human primary hepatocytes; test: Intracellular triphosphate concentration and half life; format: in vitro ADME; conditions: 2 μM
Procedure: The putative active species of the compounds of the invention is β-D-2′-deoxy-2′-β-C-methyl-4′-azidocytidine triphosphate. The stability of the triphosphate is determined in fresh human primary hepatocytes (CellzDirect or In Vitro Technologies) pre-incubated with tritiated parent compound. The hepatocytes are cultured on 6 well collagen coated plates (BD Biosciences), typically at 1.5 million cells/well using complete serum-containing medium (CellzDirect or In Vitro Technologies)/37° C./5% CO2. Various hepatocyte strains are available, such as Hu497, MHL-091806 and Hu504 and it is therefore useful to test such strains in parallel and calculate mean values from a range of strains.
The pre-incubation is typically for 24 hours with 2 μM of the tritiated parent at 10 μC/ml. […] The concentration of intracellular triphosphate is quantified at different time points up to 72 hours. […]
At the appropriate timepoint, cells are harvested by aspirating the cell culture medium and washing the cells with cold PBS. […] The parent and intracellular metabolites are identified by comparison of the retention times of the intracellular species in the radiochromatogram with the retention of non-radioactive reference standards spiked in the cell extract samples and detected by UV absorption, typically at 270 nm […]

in vitro = conditions: human
[2] = tested on: Renilla luciferase HCV replicon cells (2209-23)
HCV Pol = target: T1, HCV Pol (Hepatitis C virus genotype 1b, UniProt Q9WMX2); test: Renilla luciferase HCV replicon assay; format: cell-based
T1 construct: expressed in transfected cells
T1 sequence (Q9WMX2 2420-3010): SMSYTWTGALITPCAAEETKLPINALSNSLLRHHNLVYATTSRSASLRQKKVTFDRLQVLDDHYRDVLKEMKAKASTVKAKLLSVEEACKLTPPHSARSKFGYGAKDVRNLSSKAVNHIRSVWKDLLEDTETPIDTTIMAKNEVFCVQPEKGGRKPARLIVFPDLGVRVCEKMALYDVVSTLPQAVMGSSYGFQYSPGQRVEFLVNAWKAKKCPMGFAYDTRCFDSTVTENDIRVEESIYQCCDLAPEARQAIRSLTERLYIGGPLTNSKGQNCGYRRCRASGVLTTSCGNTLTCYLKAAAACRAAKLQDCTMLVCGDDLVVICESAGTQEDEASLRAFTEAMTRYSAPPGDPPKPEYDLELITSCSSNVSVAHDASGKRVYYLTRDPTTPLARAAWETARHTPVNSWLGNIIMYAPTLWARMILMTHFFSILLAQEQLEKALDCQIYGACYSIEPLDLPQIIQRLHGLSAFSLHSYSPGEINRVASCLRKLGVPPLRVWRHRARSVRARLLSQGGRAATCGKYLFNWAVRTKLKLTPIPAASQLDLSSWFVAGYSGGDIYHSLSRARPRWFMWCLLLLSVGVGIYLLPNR

steady state triphosphate level at 24 hours [1] [pM/million cells] | Compound | cytotoxicity at 100 µM (in vitro) [%] | cytotoxicity in the replicon assay (in words) [2] | activity in cell based replicon assay for HCV polymerase activity (in words) (HCV Pol) | inhibition at 100 µM (HCV Pol; 100 μM, cell based replicon assay, read-out: Maximum % Inhibition HCV Pol (100 μM)) [%]
1.3 | C[C@@]1(F)[C@H](O)[C@@H](CO)O[C@H]1n1ccc(N)nc1=O [PSI-6130, β-D-2′-deoxy-2′-fluoro-2′-β-C-methylcytidine] | – | – | – | –
– | CC1C(n2ccc(N)nc2=O)OC(CO)(N=[N+]=[N-])C1O (centres unmarked) [Compound 22, 4-Amino-1-(5-azido-4-hydroxy-5-hydroxymethyl-3-methyl-tetrahydro-furan-2-yl)-1H-pyrimidin-2-one] | 9.48 | low levels of cytoxicity | good activity | 98.6
